Values quoted from earlier work, collected in PMC11302729, “Repurposing Hsp90 inhibitors as antimicrobials targeting two-component systems identifies compounds leading to loss of bacterial membrane integrity” (Microbiology Spectrum, 2024).

Key:
[1] = system: PhoQ from Salmonella typhimurium; design: method as in PMID 29110989; settings: cited from earlier work
[2] = system: CckA from Caulobacter crescentus; design: method as in PMID 29110989; settings: cited from earlier work

Structure (SMILES)	IC50 [1]	IC50 [2]
COc1ccc(-c2c(-c3cc(Cl)c(O)cc3O)n[nH]c2C)cc1 [Compound 5b]	238 µM	14 µM
CCc1cc(-c2n[nH]c(C)c2-c2ccc3c(c2)OCCO3)c(O)cc1O [CCT018159]	261 µM	30 µM
